Laboratory results from ChEMBL document CHEMBL4414679, “Discovery of 4,6-pyrimidinediamine derivatives as novel dual EGFR/FGFR inhibitors aimed EGFR/FGFR1-positive NSCLC” (Eur J Med Chem, 2020).
One block for each compound: values may come before it. Active and inactive are the calls of the source. The calls are words filed in the database; no cut-off is given here.

Experiments:
[1] = target: T1, Epidermal growth factor receptor (Homo sapiens, UniProt P00533); experiment: Inhibition of N-terminal GST-tagged human EGFR cytoplasmic domain (669-1210 AA) expressed in baculovirus at 10 uM using FAM-labelled peptide as substrate pre-incubated for 10 mins followed by substrate addition by mobility shift assay relative to control
PC-9 [2] = experiment: Antiproliferative activity against human PC9 cells incubated for 48 hrs by MTT assay; type: functional, cell-based; settings: PC-9, 48 h
HCC827 [3] = experiment: Antiproliferative activity against human HCC827 cells incubated for 48 hrs by MTT assay; type: functional, cell-based; settings: HCC827, 48 h
HCC827 [4] = experiment: Antiproliferative activity against human HCC827 cells assessed as inhibition of cell growth at 10 uM incubated for 48 hrs by MTT assay relative to control; type: functional; settings: HCC827, 48 h
NCI-H226 [5] = experiment: Antiproliferative activity against human NCI-H226 cells incubated for 48 hrs by MTT assay; type: functional, cell-based; settings: NCI-H226, 48 h
NCI-H1581 [6] = experiment: Antiproliferative activity against human NCI-H1581 cells incubated for 48 hrs by MTT assay; type: functional, cell-based; settings: NCI-H1581, 48 h
NCI-H1581 [7] = experiment: Antiproliferative activity against human NCI-H1581 cells assessed as inhibition of cell growth at 10 uM incubated for 48 hrs by MTT assay relative to control; type: functional; settings: NCI-H1581, 48 h
[8] = target: T1, Epidermal growth factor receptor; experiment: Inhibition of N-terminal GST-tagged human EGFR (d746-750AA) expressed in baculovirus at 10 uM using FAM-labelled peptide as substrate pre-incubated for 10 mins followed by substrate addition by mobility shift assay relative to control
NCI-H226 [9] = experiment: Antiproliferative activity against human NCI-H226 cells assessed as inhibition of cell growth at 10 uM incubated for 48 hrs by MTT assay relative to control; type: functional; settings: NCI-H226, 48 h
NCI-H520 [10] = experiment: Antiproliferative activity against human NCI-H520 cells assessed as inhibition of cell growth at 10 uM incubated for 48 hrs by MTT assay relative to control; type: functional; settings: NCI-H520, 48 h
PC-9 [11] = experiment: Antiproliferative activity against human PC9 cells assessed as inhibition of cell growth at 10 uM incubated for 48 hrs by MTT assay relative to control; type: functional; settings: PC-9, 48 h
NCI-H520 [12] = experiment: Antiproliferative activity against human NCI-H520 cells incubated for 48 hrs by MTT assay; type: functional, cell-based; settings: NCI-H520, 48 h
[13] = tested on: Epidermal growth factor receptor (Homo sapiens), P00533 [L858R]; experiment: Inhibition of recombinant human EGFR L858R mutant expressed in baculovirus at 10 uM using FAM-labelled peptide as substrate pre-incubated for 10 mins followed by substrate addition by mobility shift assay relative to control
[14] = target: T2, Fibroblast growth factor receptor 1 (Homo sapiens, UniProt P11362); experiment: Inhibition of N-terminal GST-tagged human FGFR1 cytoplasmic domain (398-822 AA) expressed in baculovirus at 10 uM using FAM-labelled peptide as substrate pre-incubated for 10 mins followed by substrate addition by mobility shift assay relative to control
Target sequence in this assay (P11362 22-822 limits assumed): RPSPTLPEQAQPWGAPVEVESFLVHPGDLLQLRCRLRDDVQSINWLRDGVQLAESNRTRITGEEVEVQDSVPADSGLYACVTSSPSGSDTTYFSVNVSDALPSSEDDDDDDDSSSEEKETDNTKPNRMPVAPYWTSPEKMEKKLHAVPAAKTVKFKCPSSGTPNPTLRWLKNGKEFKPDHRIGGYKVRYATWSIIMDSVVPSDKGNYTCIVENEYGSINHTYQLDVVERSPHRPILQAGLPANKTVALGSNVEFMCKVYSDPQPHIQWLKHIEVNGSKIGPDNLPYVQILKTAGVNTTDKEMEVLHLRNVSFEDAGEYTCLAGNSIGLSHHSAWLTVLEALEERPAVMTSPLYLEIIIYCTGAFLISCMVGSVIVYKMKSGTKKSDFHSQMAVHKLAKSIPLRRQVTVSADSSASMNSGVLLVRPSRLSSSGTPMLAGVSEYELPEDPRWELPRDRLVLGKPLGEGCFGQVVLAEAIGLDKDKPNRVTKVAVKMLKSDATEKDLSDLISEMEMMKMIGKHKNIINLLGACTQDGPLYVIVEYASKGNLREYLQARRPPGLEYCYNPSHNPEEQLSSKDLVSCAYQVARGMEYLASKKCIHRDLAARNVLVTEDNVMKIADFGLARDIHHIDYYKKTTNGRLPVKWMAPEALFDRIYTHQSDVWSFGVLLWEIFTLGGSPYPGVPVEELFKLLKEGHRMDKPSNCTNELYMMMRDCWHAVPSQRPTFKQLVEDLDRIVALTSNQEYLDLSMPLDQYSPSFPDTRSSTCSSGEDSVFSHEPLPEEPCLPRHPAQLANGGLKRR

[15] = target: T2, Fibroblast growth factor receptor 1; settings: 10 uM
Target sequence in this assay (P11362 22-822 limits assumed): as above
Description: Inhibition of FGFR in serum-starved human H520 cells assessed as reduction in FGFR-induced AKT phosphorylation at 10 uM incubated for 1 hr by Western blot analysis

[16] = target: T2, Fibroblast growth factor receptor 1; settings: 10 uM; remark: listed apart in the source
Target sequence in this assay (P11362 22-822 limits assumed): as above
Description: Inhibition of FGF-induced FGFR1 phosphorylation in serum-starved human H520 cells at 10 uM incubated for 1 hr by Western blot analysis

[17] = target: Epidermal growth factor receptor (Homo sapiens, UniProt P00533, L858R); experiment: Inhibition of recombinant human EGFR L858R mutant expressed in baculovirus using FAM-labelled peptide as substrate pre-incubated for 10 mins followed by substrate addition by mobility shift assay
[18] = target: T1, Epidermal growth factor receptor; experiment: Inhibition of N-terminal GST-tagged human EGFR cytoplasmic domain (669-1210 AA) expressed in baculovirus using FAM-labelled peptide as substrate pre-incubated for 10 mins followed by substrate addition by mobility shift assay
[19] = target: T1, Epidermal growth factor receptor; experiment: Inhibition of N-terminal GST-tagged human EGFR (d746-750AA) expressed in baculovirus using FAM-labelled peptide as substrate pre-incubated for 10 mins followed by substrate addition by mobility shift assay
[20] = target: T2, Fibroblast growth factor receptor 1; experiment: Inhibition of N-terminal GST-tagged human FGFR1 cytoplasmic domain (398-822 AA) expressed in baculovirus using FAM-labelled peptide as substrate pre-incubated for 10 mins followed by substrate addition by mobility shift assay

Chain of Epidermal growth factor receptor (Homo sapiens), P00533 [L858R] (P00533 whole entry L858R, the tested form may be a part): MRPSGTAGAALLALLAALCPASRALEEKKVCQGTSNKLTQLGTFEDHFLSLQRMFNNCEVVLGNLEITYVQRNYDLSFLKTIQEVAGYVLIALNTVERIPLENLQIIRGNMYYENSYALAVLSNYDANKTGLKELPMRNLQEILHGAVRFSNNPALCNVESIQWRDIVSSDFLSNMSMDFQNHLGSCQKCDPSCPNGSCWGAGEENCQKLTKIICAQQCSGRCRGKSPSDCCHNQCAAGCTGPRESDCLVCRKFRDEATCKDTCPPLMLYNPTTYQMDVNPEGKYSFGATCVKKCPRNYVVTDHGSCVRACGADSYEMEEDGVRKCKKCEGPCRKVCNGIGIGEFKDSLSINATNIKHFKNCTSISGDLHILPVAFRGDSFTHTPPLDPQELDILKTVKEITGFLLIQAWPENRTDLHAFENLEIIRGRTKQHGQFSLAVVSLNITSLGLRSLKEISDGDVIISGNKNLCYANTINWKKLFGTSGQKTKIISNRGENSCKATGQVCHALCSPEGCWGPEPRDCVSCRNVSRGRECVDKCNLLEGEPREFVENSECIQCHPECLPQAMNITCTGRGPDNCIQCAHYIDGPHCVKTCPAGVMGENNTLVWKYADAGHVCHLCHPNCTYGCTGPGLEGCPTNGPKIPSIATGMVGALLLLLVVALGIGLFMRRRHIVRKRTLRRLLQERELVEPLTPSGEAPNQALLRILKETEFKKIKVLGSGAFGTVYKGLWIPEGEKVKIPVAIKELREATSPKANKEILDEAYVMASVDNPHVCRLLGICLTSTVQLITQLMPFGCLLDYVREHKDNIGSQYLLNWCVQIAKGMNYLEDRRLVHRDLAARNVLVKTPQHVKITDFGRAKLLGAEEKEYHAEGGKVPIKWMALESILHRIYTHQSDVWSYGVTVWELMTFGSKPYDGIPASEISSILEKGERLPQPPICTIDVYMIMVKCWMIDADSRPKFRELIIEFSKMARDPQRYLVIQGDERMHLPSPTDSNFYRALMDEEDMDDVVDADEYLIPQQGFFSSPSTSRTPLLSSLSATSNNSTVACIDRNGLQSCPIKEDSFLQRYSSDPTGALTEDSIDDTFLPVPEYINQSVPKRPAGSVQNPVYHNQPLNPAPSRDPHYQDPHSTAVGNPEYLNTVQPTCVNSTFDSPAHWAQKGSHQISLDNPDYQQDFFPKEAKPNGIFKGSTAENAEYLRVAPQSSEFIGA
T1 sequence (P00533 whole entry, the tested form may be a part): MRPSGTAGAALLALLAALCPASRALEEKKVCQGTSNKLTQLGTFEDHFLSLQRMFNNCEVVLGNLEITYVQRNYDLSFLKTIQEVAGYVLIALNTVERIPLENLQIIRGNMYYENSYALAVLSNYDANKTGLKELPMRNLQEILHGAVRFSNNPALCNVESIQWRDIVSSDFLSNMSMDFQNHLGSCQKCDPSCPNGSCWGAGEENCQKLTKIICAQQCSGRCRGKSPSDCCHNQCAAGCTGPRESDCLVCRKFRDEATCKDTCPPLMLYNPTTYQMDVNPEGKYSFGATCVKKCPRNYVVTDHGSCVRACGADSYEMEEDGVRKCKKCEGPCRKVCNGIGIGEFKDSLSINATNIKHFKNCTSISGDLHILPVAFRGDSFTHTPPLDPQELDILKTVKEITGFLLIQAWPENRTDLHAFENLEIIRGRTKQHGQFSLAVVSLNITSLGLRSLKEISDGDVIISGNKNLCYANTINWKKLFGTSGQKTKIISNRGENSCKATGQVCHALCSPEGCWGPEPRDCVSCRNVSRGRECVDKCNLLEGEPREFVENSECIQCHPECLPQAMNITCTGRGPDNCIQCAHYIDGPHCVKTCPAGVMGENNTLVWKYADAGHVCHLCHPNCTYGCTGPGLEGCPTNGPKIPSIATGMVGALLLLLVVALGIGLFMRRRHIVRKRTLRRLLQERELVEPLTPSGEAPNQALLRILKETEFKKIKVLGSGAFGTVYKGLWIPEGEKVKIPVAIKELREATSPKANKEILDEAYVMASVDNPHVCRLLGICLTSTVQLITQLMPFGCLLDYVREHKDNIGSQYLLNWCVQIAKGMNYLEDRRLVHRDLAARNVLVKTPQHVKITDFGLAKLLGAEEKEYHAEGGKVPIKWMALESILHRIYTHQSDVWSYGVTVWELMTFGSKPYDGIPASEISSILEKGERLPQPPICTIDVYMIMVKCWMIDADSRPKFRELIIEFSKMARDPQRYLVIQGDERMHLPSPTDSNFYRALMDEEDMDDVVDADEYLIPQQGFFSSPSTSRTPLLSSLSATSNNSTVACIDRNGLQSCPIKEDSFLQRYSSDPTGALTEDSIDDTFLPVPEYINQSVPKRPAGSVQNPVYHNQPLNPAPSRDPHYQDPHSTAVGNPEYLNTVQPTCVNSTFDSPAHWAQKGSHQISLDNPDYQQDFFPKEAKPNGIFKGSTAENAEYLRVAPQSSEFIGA
Chain of Epidermal growth factor receptor (Homo sapiens, UniProt P00533, L858R) (P00533 25-1210 L858R limits assumed): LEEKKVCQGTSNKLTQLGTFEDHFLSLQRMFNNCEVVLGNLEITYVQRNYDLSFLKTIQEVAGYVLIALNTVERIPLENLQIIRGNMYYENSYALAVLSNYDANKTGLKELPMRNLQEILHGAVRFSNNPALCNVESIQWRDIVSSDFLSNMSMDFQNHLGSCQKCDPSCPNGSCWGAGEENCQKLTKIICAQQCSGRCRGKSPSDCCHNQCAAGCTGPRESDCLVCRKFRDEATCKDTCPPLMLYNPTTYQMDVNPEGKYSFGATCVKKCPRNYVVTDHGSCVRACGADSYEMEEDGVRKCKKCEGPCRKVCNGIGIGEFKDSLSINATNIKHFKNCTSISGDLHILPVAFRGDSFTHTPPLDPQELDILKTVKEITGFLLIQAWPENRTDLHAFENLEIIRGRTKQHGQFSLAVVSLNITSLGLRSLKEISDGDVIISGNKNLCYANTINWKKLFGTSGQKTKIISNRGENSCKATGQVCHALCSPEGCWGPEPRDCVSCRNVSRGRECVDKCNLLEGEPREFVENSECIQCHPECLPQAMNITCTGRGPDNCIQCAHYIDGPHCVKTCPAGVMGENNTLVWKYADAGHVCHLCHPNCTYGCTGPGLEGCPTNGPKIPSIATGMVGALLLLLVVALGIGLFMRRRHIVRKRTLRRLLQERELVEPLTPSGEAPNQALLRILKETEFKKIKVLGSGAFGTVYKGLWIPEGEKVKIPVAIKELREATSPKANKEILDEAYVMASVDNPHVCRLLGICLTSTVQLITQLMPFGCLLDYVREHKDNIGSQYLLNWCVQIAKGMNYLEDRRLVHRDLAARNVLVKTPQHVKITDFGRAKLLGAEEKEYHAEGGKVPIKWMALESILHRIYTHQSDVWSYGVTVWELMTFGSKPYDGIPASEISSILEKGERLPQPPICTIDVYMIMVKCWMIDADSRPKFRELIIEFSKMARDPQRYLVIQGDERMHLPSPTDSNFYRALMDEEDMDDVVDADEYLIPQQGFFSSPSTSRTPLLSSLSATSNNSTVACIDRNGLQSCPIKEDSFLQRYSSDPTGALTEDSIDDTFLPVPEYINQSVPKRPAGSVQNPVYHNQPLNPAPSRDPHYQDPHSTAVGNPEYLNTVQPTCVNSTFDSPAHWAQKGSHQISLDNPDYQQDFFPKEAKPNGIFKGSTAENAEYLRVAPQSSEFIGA

Compound: COc1cc(NC(=O)Nc2cc(Nc3cc(OC)cc(OC)c3)ncn2)cc(OC)c1
inhibition [1]: 66.2%
IC50 (PC-9 [2]): 3.83 µM
IC50 (HCC827 [3]): 4.25 µM
inhibition at 10 µM (HCC827 [4]): 51.3%
IC50 (NCI-H226 [5]): 8.32 µM
IC50 (NCI-H1581 [6]): 7.34 µM
inhibition at 10 µM (NCI-H1581 [7]): 40.7%
inhibition [8]: 56.7%
inhibition at 10 µM (NCI-H226 [9]): 38.3%
inhibition at 10 µM (NCI-H520 [10]): 40.5%
inhibition at 10 µM (PC-9 [11]): 76.5%
IC50 (NCI-H520 [12]): 10.8 µM
inhibition [13]: 51.7%
inhibition [14]: 10.6%

inhibition [15]: Active
inhibition [16]: Active
Compound: CCN1CCN(c2ccc(Nc3cc(N(C)C(=O)Nc4c(Cl)c(OC)cc(OC)c4Cl)ncn3)cc2)CC1 [INFIGRATINIB]
inhibition at 10 µM (HCC827 [4]): 32%
inhibition at 10 µM (NCI-H1581 [7]): 83.7%
inhibition at 10 µM (NCI-H226 [9]): 67.3%
inhibition at 10 µM (NCI-H520 [10]): 77.1%
inhibition at 10 µM (PC-9 [11]): 55.5%

Compound: COc1cc(NC(=O)Nc2cc(Nc3cc(OC)ccc3OC)ncn2)cc(OC)c1
inhibition [1]: 63.3%
IC50 (PC-9 [2]): 5.92 µM
IC50 (HCC827 [3]): 3.24 µM
inhibition at 10 µM (HCC827 [4]): 63%
IC50 (NCI-H226 [5]): 7.39 µM
IC50 (NCI-H1581 [6]): 8.39 µM
inhibition at 10 µM (NCI-H1581 [7]): 40.7%
inhibition [8]: 65.7%
inhibition at 10 µM (NCI-H226 [9]): 41.1%
inhibition at 10 µM (NCI-H520 [10]): 34%
inhibition at 10 µM (PC-9 [11]): 59.5%
IC50 (NCI-H520 [12]): 7.52 µM
inhibition [13]: 60%
inhibition [14]: 3.4%

Compound: Cc1cc(F)cc(Nc2cc(NC(=O)Nc3c(Cl)cccc3Cl)ncn2)c1
IC50 [17]: 0.174 µM
inhibition [1]: 79.2%
IC50 (PC-9 [2]): 2.79 µM
IC50 (HCC827 [3]): 18.6 µM
inhibition at 10 µM (HCC827 [4]): 49.1%
IC50 (NCI-H226 [5]): 2.96 µM
IC50 [18]: 0.528 µM
IC50 [19]: 0.253 µM
IC50 (NCI-H1581 [6]): 4.78 µM
inhibition at 10 µM (NCI-H1581 [7]): 65%
IC50 [20]: 1.22 µM
inhibition [8]: 89.7%
inhibition at 10 µM (NCI-H226 [9]): 78.1%
inhibition at 10 µM (NCI-H520 [10]): 60.5%
inhibition at 10 µM (PC-9 [11]): 80%
IC50 (NCI-H520 [12]): 3.78 µM
inhibition [13]: 91.9%
inhibition [14]: 70.3%

Compound: COc1cc(NC(=O)Nc2cc(Nc3cc(C(F)(F)F)ccc3OC)ncn2)cc(OC)c1
inhibition [1]: 74.6%
IC50 (PC-9 [2]): 6.22 µM
IC50 (HCC827 [3]): 15.1 µM
inhibition at 10 µM (HCC827 [4]): 59.7%
IC50 (NCI-H226 [5]): 14.6 µM
IC50 (NCI-H1581 [6]): 7.35 µM
inhibition at 10 µM (NCI-H1581 [7]): 67%
inhibition [8]: 54.2%
inhibition at 10 µM (NCI-H226 [9]): 60%
inhibition at 10 µM (NCI-H520 [10]): 63%
inhibition at 10 µM (PC-9 [11]): 81.1%
IC50 (NCI-H520 [12]): 4.45 µM
inhibition [13]: 73.1%
inhibition [14]: 11%

Compound: COc1cc(NC(=O)Nc2cc(Nc3ccc(Br)cc3OC)ncn2)cc(OC)c1
inhibition [1]: 12.4%
inhibition at 10 µM (HCC827 [4]): 57.7%
inhibition at 10 µM (NCI-H1581 [7]): 20.1%
inhibition [8]: 17.9%
inhibition at 10 µM (NCI-H226 [9]): 25.7%
inhibition at 10 µM (NCI-H520 [10]): 36%
inhibition at 10 µM (PC-9 [11]): 83%
inhibition [13]: 36.9%
inhibition [14]: -0.7%

Compound: COc1cc(NC(=O)Nc2cc(Nc3ccc(F)c(Cl)c3)ncn2)cc(OC)c1
inhibition [1]: 46.7%
inhibition at 10 µM (HCC827 [4]): 53%
inhibition at 10 µM (NCI-H1581 [7]): 53%
inhibition [8]: 52.8%
inhibition at 10 µM (NCI-H226 [9]): 36.7%
inhibition at 10 µM (NCI-H520 [10]): 25.5%
inhibition at 10 µM (PC-9 [11]): 77.5%
inhibition [13]: 69.1%
inhibition [14]: 1%

Compound: COc1ccc(Br)cc1Nc1cc(NC(=O)Nc2c(Cl)cccc2Cl)ncn1
inhibition [1]: 87.3%
inhibition at 10 µM (HCC827 [4]): 53%
inhibition at 10 µM (NCI-H1581 [7]): 53.3%
inhibition [8]: 93.5%
inhibition at 10 µM (NCI-H226 [9]): 33%
inhibition at 10 µM (NCI-H520 [10]): 45%
inhibition at 10 µM (PC-9 [11]): 69%
inhibition [13]: 95.9%
inhibition [14]: 37.8%

Compound: COc1cc(NC(=O)Nc2cc(Nc3ccc(OC)c(I)c3)ncn2)cc(OC)c1
inhibition [1]: 31.4%
inhibition at 10 µM (HCC827 [4]): 61.7%
inhibition at 10 µM (NCI-H1581 [7]): 43%
inhibition [8]: 43.6%
inhibition at 10 µM (NCI-H226 [9]): 40.1%
inhibition at 10 µM (NCI-H520 [10]): 46.5%
inhibition at 10 µM (PC-9 [11]): 47%
inhibition [13]: 46%
inhibition [14]: 10.3%

Compound: COc1cc(NC(=O)Nc2cc(Nc3cc(I)ccc3OC)ncn2)cc(OC)c1
inhibition [1]: 58.7%
IC50 (PC-9 [2]): 3.54 µM
IC50 (HCC827 [3]): > 20 µM
inhibition at 10 µM (HCC827 [4]): 71%
IC50 (NCI-H226 [5]): 19.4 µM
IC50 (NCI-H1581 [6]): 8.86 µM
inhibition at 10 µM (NCI-H1581 [7]): 59%
inhibition [8]: 60.2%
inhibition at 10 µM (NCI-H226 [9]): 56.7%
inhibition at 10 µM (NCI-H520 [10]): 55%
inhibition at 10 µM (PC-9 [11]): 91%
IC50 (NCI-H520 [12]): 9.87 µM
inhibition [13]: 74%
inhibition [14]: -2.1%

Compound: COc1cc(NC(=O)Nc2cc(Nc3ccc(OC)c(C)c3)ncn2)cc(OC)c1
inhibition [1]: 74.9%
inhibition at 10 µM (HCC827 [4]): 48.3%
inhibition at 10 µM (NCI-H1581 [7]): 19.7%
inhibition [8]: 54.9%
inhibition at 10 µM (NCI-H226 [9]): 39.7%
inhibition at 10 µM (NCI-H520 [10]): 13.5%
inhibition at 10 µM (PC-9 [11]): 62%
inhibition [13]: 46.5%
inhibition [14]: 36.6%

Compound: COc1cc(Nc2cc(NC(=O)Nc3c(Cl)cccc3Cl)ncn2)cc(OC)c1
IC50 [17]: 0.49 µM
inhibition [1]: 87.3%
IC50 (PC-9 [2]): 3.18 µM
IC50 (HCC827 [3]): 13.3 µM
inhibition at 10 µM (HCC827 [4]): 73.7%
IC50 (NCI-H226 [5]): 16.9 µM
IC50 [18]: 0.315 µM
IC50 [19]: 0.332 µM
IC50 (NCI-H1581 [6]): 5.32 µM
inhibition at 10 µM (NCI-H1581 [7]): 68%
IC50 [20]: 1.1 µM
inhibition [8]: 84.2%
inhibition at 10 µM (NCI-H226 [9]): 60%
inhibition at 10 µM (NCI-H520 [10]): 55.5%
inhibition at 10 µM (PC-9 [11]): 90%
IC50 (NCI-H520 [12]): 10.5 µM
inhibition [13]: 79.4%
inhibition [14]: 74.2%
